Measured values published in patent publication US20230348416A1, “GPR52 MODULATOR COMPOUNDS” (Heptares Therapeutics Limited, priority 2020, published 2023).

What was measured:
[1] = Rat IV and PO pharmacokinetic profiling; assay type: in vivo, male Sprague-Dawley rats; conditions: male, Sprague-Dawley, plasma, n = 3, mean ± standard deviation
Description: The pharmacokinetic profiles of Example 2 were assessed in male Sprague-Dawley rats via intravenous (IV) and oral (per os, PO) routes of delivery. Pharmacokinetic data (mean values±standard deviation) for Example 2 of the invention are detailed in Table 5.
Methods: For pharmacokinetic analysis, groups of three male Sprague-Dawley rats, ranging in weight between 200 and 230 g, were administered a single dose of Example 2 via IV or PO route, using the doses, dose volumes and vehicles specified in Table 5. Following dosing, blood samples were taken at several time points (pre-dose, 2 min, 5 min, 15 min, 30 min, 1 h, 3 h, 6 h, 12 h and 24 h for IV administration and pre-dose, 5 min, 15 min, 30 min, 1 hr, 2 h, 4 h, 8 h, 12 h and 24 h for PO administration) via serial tail vein bleeds, and centrifuged to separate plasma for analysis by LC-MS/MS. WinNonlin v8.2 statistics software (Pharsight Corporation, California, USA) was used to generate pharmacokinetic parameters using non-compartmental analysis.

human GPR52 = molecular target: T1, human GPR52 (Homo sapiens, UniProt Q9Y2T5); assay: GPR52 Agonist Functional cAMP Assay; assay type: cell-based
T1 construct: expressed in transfected cells; host or cells: HEKf suspension cells infected with BacMam virus
T1 sequence (Q9Y2T5 whole entry): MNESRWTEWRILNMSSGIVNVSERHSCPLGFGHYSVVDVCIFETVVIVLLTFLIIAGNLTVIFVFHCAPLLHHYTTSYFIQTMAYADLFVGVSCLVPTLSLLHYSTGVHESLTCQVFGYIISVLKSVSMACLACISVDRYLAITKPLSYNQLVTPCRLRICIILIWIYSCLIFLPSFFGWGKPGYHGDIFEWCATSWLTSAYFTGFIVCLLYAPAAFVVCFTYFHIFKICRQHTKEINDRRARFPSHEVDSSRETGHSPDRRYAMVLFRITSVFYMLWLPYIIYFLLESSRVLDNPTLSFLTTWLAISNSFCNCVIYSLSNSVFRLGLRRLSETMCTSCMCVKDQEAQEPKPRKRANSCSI
Description: GPR52 Agonist Functional cAMP Assay
HEKf suspension cells were infected for 24 h with 0.1% v/v human GPR52 expressing BacMam virus, a modified baculovirus designed for mammalian gene expression. Following BacMam infection, cells were pelleted by centrifugation (335 g, 5 min), resuspended in cell freezing medium (Sigma) and frozen at −150° C. until required. On experiment day, 25 nL GPR52 compound dilutions, prepared in DMSO, were stamped onto proxiplates (PerkinElmer) by a LabCyte ECHO acoustic dispenser. Frozen cells were thawed and resuspended in assay stimulation buffer (Cisbio) containing 0.5 mM 3-iso-butyl-1-methylxanthine (IBMX, Sigma) to achieve a density of 2000 cells per well. 10 μl cells were added to assay plates using a Multidrop Combi Reagent Dispenser (ThermoFisher) before centrifugation (335 g, 1 min). Cells were incubated with compounds at 37° C. for 30 min prior to addition of cAMP detection reagents (HiRange cAMP kit, Cisbio) which were prepared according to the manufacturer's instructions. Plates were shaken for 1 h at room temperature before reading on a PHERAstar FS plate reader (BMG Labtech) using standard HTRF settings. HTRF ratios were obtained by dividing the acceptor emissions (665 nm) by the donor emissions (620 nm) and multiplying by 10,000.

[2] = Rat IV brain penetration (unbound brain-to-plasma ratio); assay type: in vivo, male Sprague-Dawley rats; conditions: male, Sprague-Dawley, brain and plasma, 1 mg/kg, 10 min post-dose, n = 3
Description: Plasma and brain exposure were evaluated to assess the brain penetration of Example 2, following IV administration. Unbound brain-to-plasma ratio (Kp,uu) was calculated, as detailed in Table 5, following experimental determination of binding in rat plasma and brain homogenate.
Methods: For brain penetration assessment, male Sprague-Dawley rats (n=3) were administered a single 1 mg/kg dose (formulated in 10% DMAC+10% Solutol HS15+80% saline) via the IV route. After 10 min post-dose, animals were sacrificed and brains extracted, homogenised with 2 volumes (w/v) of 50 mM sodium phosphate buffer (pH 7.4), and analysed by LC-MS/MS. Blood samples were removed at the same time point via tail vein bleed, centrifuged and the plasma analysed by LC-MS/MS.
To permit calculation of unbound brain-to-plasma ratio (Kp,uu), test compound binding in rat plasma and brain homogenate was performed, using Rapid Equilibrium Dialysis (RED). Test compound prepared in DMSO (1 μM final, 0.2% DMSO) was added to (i) undiluted male Sprague Dawley rat plasma and (ii) rat brain tissue homogenised with 2 volumes (w/v) of sodium phosphate buffer (pH 7.4), and dialysed against phosphate buffer for 5 h at 37° C. […] Fraction unbound (Fu) in plasma and brain was calculated using the following formula, then used to correct total plasma and brain concentrations to derive the Kp,uu: […]

clearance ([1]; rat IV, 1 mg/kg): 5.5 ± 1 mL/min/kg
bioavailability ([1]; rat PO, 3 mg/kg): 88.2 ± 11.4%
EC50 (human GPR52; HEKf cells infected with human GPR52 BacMam virus, HTRF cAMP, 30 min at 37° C., read-out: PEC50 average (converted)): 50.1 nM
Emax (human GPR52; maximal response normalised to DMSO (0%) and compound 7m of J. Med. Chem., 2014, 57, 5226 (100%)): 86%
Kp uu at 10 min [2]: 0.35 ± 0.02
SMILES: CC(=O)NC1CCCc2c1nnn2-c1cc(Cc2cc(F)cc(C(F)(F)F)c2)ccn1 (centres unmarked) [Example 2, N-(1-(4-(3-fluoro-5-(trifluoromethyl)benzyl)pyridin-2-yl)-4,5,6,7-tetrahydro-1H-benzo[d][1,2,3]triazol-4-yl)acetamide]
